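Step 1: Grow cells in 96-well plates. Step 2: Expose to compound for 48 hours at 5 concentrations. Step 3: Interpolate endpoints linearly; if unreached, use highest concentration. Abbreviation: GI50, concentration required for 50% inhibition of growth. The concentration for full growth arrest is given as TGI.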
Assays:
Experiment in all cases: inhibition of tumour cell growth, NCI panel, 48 h
[1] = tested on: NCI-H522 lung
[2] = tested on: TK-10 renal
[3] = tested on: HL-60(TB) leukemia
[4] = tested on: SK-MEL-28 melanoma
[5] = tested on: HCC-2998 colon
[6] = tested on: BT-549 breast
[7] = tested on: NCI-H23 lung
[8] = tested on: CCRF-CEM leukemia
[9] = tested on: SK-MEL-2 melanoma
[10] = tested on: A498 renal
[11] = tested on: DU-145 prostate
[12] = tested on: MDA-MB-468 breast
[13] = tested on: MALME-3M melanoma
[14] = tested on: SF-539 CNS
[15] = tested on: NCI-H226 lung
[16] = tested on: NCI-H460 lung
[17] = tested on: KM12 colon
[18] = tested on: SF-268 CNS
[19] = tested on: UACC-257 melanoma
[20] = tested on: COLO 205 colon
[21] = tested on: EKVX NSCLC
[22] = tested on: RXF 393 renal
[23] = tested on: HOP-92 NSCLC
[24] = tested on: HS 578T breast
[25] = tested on: CAKI-1 renal
[26] = tested on: K-562 leukemia
[27] = tested on: OVCAR-8 ovarian
[28] = tested on: SN12C renal
[29] = tested on: U251 CNS
[30] = tested on: A549 NSCLC
[31] = tested on: ACHN renal
[32] = tested on: MCF7 breast
[33] = tested on: 786-0 renal
[34] = tested on: HCT-15 colon
[35] = tested on: SNB-75 CNS
[36] = tested on: UACC-62 melanoma
[37] = tested on: SR leukemia
[38] = tested on: SK-MEL-5 melanoma
[39] = tested on: OVCAR-5 ovarian
[40] = tested on: SK-OV-3 ovarian
[41] = tested on: LOX IMVI melanoma
[42] = tested on: IGROV1 ovarian
[43] = tested on: HOP-62 NSCLC
[44] = tested on: M14 melanoma
[45] = tested on: SNB-19 CNS
[46] = tested on: MDA-MB-231 breast
[47] = tested on: PC-3 prostate
[48] = tested on: MDA-MB-435
[49] = tested on: UO-31 renal
[50] = tested on: OVCAR-3 ovarian
[51] = tested on: MOLT-4 leukemia
[52] = tested on: RPMI-8226 leukemia
[53] = tested on: HT29 colon
[54] = tested on: OVCAR-4 ovarian
[55] = tested on: T-47D breast
[56] = tested on: SF-295 CNS
[57] = tested on: HCT-116 colon
[58] = tested on: NCI/ADR-RES ovarian
[59] = tested on: SW-620 colon

Compound: C=C1CCC2C3(C)COC(c4ccccc4F)OC3CCC2(C)C1C/C=C1/C(=O)OCC1O (configuration not stated)
- GI50 [1]: 1.57 µM
- TGI [1]: 3.12 µM
- GI50 [2]: 8.18 µM
- TGI [2]: 22.2 µM
- GI50 [3]: 1.65 µM
- TGI [3]: 5.48 µM
- GI50 [4]: 2.92 µM
- TGI [4]: 7.63 µM
- GI50 [5]: 5.12 µM
- TGI [5]: 17.8 µM
- GI50 [6]: 2.6 µM
- TGI [6]: 5.76 µM
- GI50 [7]: 10.8 µM
- TGI [7]: 26 µM
- GI50 [8]: 1.81 µM
- TGI [8]: 6.53 µM
- GI50 [9]: 2.67 µM
- TGI [9]: 7.79 µM
- GI50 [10]: 20.1 µM
- TGI [10]: 37.3 µM
- GI50 [11]: 4.09 µM
- TGI [11]: 15.1 µM
- GI50 [12]: 1.62 µM
- TGI [12]: 3.63 µM
- GI50 [13]: 7.35 µM
- TGI [13]: 21.8 µM
- GI50 [14]: 1.94 µM
- TGI [14]: 3.52 µM
- GI50 [15]: 1.67 µM
- TGI [15]: 3.3 µM
- GI50 [16]: 3.36 µM
- TGI [16]: > 100 µM
- GI50 [17]: 2.99 µM
- TGI [17]: 10.3 µM
- GI50 [18]: 3.85 µM
- TGI [18]: 16.4 µM
- GI50 [19]: 2.36 µM
- TGI [19]: 13.2 µM
- GI50 [20]: 2.96 µM
- TGI [20]: 8.38 µM
- GI50 [21]: 15.4 µM
- TGI [21]: 30.3 µM
- GI50 [22]: 3 µM
- TGI [22]: 12.2 µM
- GI50 [23]: 3.65 µM
- TGI [23]: 14.6 µM
- GI50 [24]: 4.4 µM
- TGI [24]: 47.9 µM
- GI50 [25]: 3.84 µM
- TGI [25]: 13.3 µM
- GI50 [26]: 3.04 µM
- TGI [26]: > 100 µM
- GI50 [27]: 1.98 µM
- TGI [27]: 5.53 µM
- GI50 [28]: 1.99 µM
- TGI [28]: 4.49 µM
- GI50 [29]: 1.96 µM
- TGI [29]: 3.97 µM
- GI50 [30]: 4.4 µM
- TGI [30]: 94 µM
- GI50 [31]: 1.85 µM
- TGI [31]: 3.34 µM
- GI50 [32]: 1.83 µM
- TGI [32]: 5.45 µM
- GI50 [33]: 2.02 µM
- TGI [33]: 3.69 µM
- GI50 [34]: 1.85 µM
- TGI [34]: 4.52 µM
- GI50 [35]: 2.82 µM
- TGI [35]: 12.8 µM
- GI50 [36]: 3.17 µM
- TGI [36]: 12.1 µM
- GI50 [37]: 2.5 µM
- TGI [37]: 19.9 µM
- GI50 [38]: 5.67 µM
- TGI [38]: 18.2 µM
- GI50 [39]: 2.47 µM
- TGI [39]: 5.78 µM
- GI50 [40]: 18.6 µM
- TGI [40]: 35.4 µM
- GI50 [41]: 1.57 µM
- TGI [41]: 2.92 µM
- GI50 [42]: 5.66 µM
- TGI [42]: 19.7 µM
- GI50 [43]: 15.8 µM
- TGI [43]: 35.1 µM
- GI50 [44]: 4.24 µM
- TGI [44]: 19.2 µM
- GI50 [45]: 11.5 µM
- TGI [45]: 26.8 µM
- GI50 [46]: 2.41 µM
- TGI [46]: 5.41 µM
- GI50 [47]: 3.45 µM
- TGI [47]: 14.6 µM
- GI50 [48]: 2.25 µM
- TGI [48]: 5.79 µM
- GI50 [49]: 1.97 µM
- TGI [49]: 5.54 µM
- GI50 [50]: 1.8 µM
- TGI [50]: 3.7 µM
- GI50 [51]: 3.31 µM
- TGI [51]: 17.2 µM
- GI50 [52]: 2.6 µM
- TGI [52]: 7.35 µM
- GI50 [53]: 1.9 µM
- TGI [53]: 3.85 µM
- GI50 [54]: 2.45 µM
- TGI [54]: 7.65 µM
- GI50 [55]: 3.76 µM
- TGI [55]: 16.9 µM
- GI50 [56]: 2.13 µM
- TGI [56]: 5.24 µM

Compound: COc1ccc(C(=O)Nc2ccc(-c3ccc4c(c3)NC(=O)/C4=C\c3ccc[nH]3)cc2)cc1
- GI50 [1]: 17 µM
- TGI [1]: 91.3 µM
- GI50 [2]: 19 µM
- TGI [2]: > 100 µM
- GI50 [3]: 32.4 µM
- TGI [3]: > 100 µM
- GI50 [4]: 79.6 µM
- TGI [4]: > 100 µM
- GI50 [5]: 9.38 µM
- TGI [5]: > 100 µM
- GI50 [6]: 33.4 µM
- TGI [6]: > 100 µM
- GI50 [7]: 12.4 µM
- TGI [7]: > 100 µM
- GI50 [8]: > 100 µM
- TGI [8]: > 100 µM
- GI50 [10]: > 100 µM
- TGI [10]: > 100 µM
- GI50 [11]: 8.3 µM
- TGI [11]: > 100 µM
- GI50 [12]: 0.243 µM
- TGI [12]: 1.71 µM
- GI50 [13]: 13.4 µM
- TGI [13]: > 100 µM
- GI50 [57]: 15.7 µM
- TGI [57]: > 100 µM
- GI50 [14]: > 100 µM
- TGI [14]: > 100 µM
- GI50 [15]: 4.08 µM
- TGI [15]: > 100 µM
- GI50 [16]: 12.7 µM
- TGI [16]: > 100 µM
- GI50 [17]: 53.7 µM
- TGI [17]: > 100 µM
- GI50 [18]: 28.7 µM
- TGI [18]: > 100 µM
- GI50 [19]: 9.07 µM
- TGI [19]: > 100 µM
- GI50 [20]: 3.36 µM
- TGI [20]: 12.1 µM
- GI50 [21]: 2.46 µM
- TGI [21]: > 100 µM
- GI50 [22]: 8.74 µM
- TGI [22]: 50.8 µM
- GI50 [23]: 42.8 µM
- TGI [23]: > 100 µM
- GI50 [24]: 5.82 µM
- TGI [24]: 49.2 µM
- GI50 [25]: > 100 µM
- TGI [25]: > 100 µM
- GI50 [26]: 25.2 µM
- TGI [26]: > 100 µM
- GI50 [27]: 2.95 µM
- TGI [27]: 10.3 µM
- GI50 [28]: 68.9 µM
- TGI [28]: > 100 µM
- GI50 [29]: 5.29 µM
- TGI [29]: 18.9 µM
- GI50 [30]: 15.2 µM
- TGI [30]: > 100 µM
- GI50 [31]: 48.2 µM
- TGI [31]: > 100 µM
- GI50 [32]: 0.372 µM
- TGI [32]: > 100 µM
- GI50 [33]: 21.8 µM
- TGI [33]: 71.9 µM
- GI50 [58]: 3.84 µM
- TGI [58]: 16.3 µM
- GI50 [34]: 23 µM
- TGI [34]: > 100 µM
- GI50 [59]: 8.39 µM
- TGI [59]: > 100 µM
- GI50 [36]: 20.5 µM
- TGI [36]: > 100 µM
- GI50 [37]: 13.4 µM
- TGI [37]: > 100 µM
- GI50 [38]: > 100 µM
- TGI [38]: > 100 µM
- GI50 [39]: 30.8 µM
- TGI [39]: > 100 µM
- GI50 [40]: > 100 µM
- TGI [40]: > 100 µM
- GI50 [41]: 7.29 µM
- TGI [41]: > 100 µM
- GI50 [42]: 37.6 µM
- TGI [42]: > 100 µM
- GI50 [43]: 3.76 µM
- TGI [43]: 13.5 µM
- GI50 [44]: 7.15 µM
- TGI [44]: > 100 µM
- GI50 [45]: 30.9 µM
- TGI [45]: > 100 µM
- GI50 [47]: 27.7 µM
- TGI [47]: > 100 µM
- GI50 [48]: > 100 µM
- TGI [48]: > 100 µM
- GI50 [50]: 47.1 µM
- TGI [50]: > 100 µM
- GI50 [51]: 19.4 µM
- TGI [51]: > 100 µM
- GI50 [52]: 38.4 µM
- TGI [52]: > 100 µM
- GI50 [53]: 4.23 µM
- TGI [53]: 19.8 µM
- GI50 [54]: 3.55 µM
- TGI [54]: 23.2 µM
- GI50 [55]: 3.17 µM
- TGI [55]: 41.2 µM
- GI50 [56]: 13.9 µM
- TGI [56]: 62.4 µM

Source: PubChem BioAssay (NCI)
